In PMC3693115 (Evidence-based Complementary and Alternative Medicine : eCAM, 2013):

How the values were obtained:
[1] = DPPH microplate assay (radical scavenging activity); conditions: for Antioxidant IC50 (radical scavenging activity) / Antioxidant % inhibition (at 100 µg/mL): mean ± SEM (n = 3)
Procedure: The antioxidant capacity was estimated in terms of radical scavenging activity according to a modified version of Brand-Williams method. Briefly, 100 μL of tested compounds at least 5 concentrations (dissolved in MeOH) was thoroughly mixed with 100 μL of freshly prepared DPPH solution (3 × 10^−5 M dissolved in MeOH). The reaction mixture was incubated for 30 min, then, the absorbance was read at 517 nm. Each assay was done in triplicate. IC50 value was determined by a linear regression analysis between the inhibition percentages against the concentration of tested compounds by using the Excel program.

[2] = molecular target: cellular AChE of SK-N-SH cells (Homo sapiens, UniProt P22303); test: cell-based; parameters: host or cells: SK-N-SH human neuroblastoma cells; conditions: for IC50: mean ± SEM (n = 3), read-out: Anticholinesterase (using neuroblastoma cell) IC50 (converted); for inhibition at 100 µg/mL: read-out: Anticholinesterase (using neuroblastoma cell) % inhibition (at 100 µg/mL), 100 µg/mL, mean ± SEM (n = 3)
Sequence of cellular AChE of SK-N-SH cells (P22303 32-614): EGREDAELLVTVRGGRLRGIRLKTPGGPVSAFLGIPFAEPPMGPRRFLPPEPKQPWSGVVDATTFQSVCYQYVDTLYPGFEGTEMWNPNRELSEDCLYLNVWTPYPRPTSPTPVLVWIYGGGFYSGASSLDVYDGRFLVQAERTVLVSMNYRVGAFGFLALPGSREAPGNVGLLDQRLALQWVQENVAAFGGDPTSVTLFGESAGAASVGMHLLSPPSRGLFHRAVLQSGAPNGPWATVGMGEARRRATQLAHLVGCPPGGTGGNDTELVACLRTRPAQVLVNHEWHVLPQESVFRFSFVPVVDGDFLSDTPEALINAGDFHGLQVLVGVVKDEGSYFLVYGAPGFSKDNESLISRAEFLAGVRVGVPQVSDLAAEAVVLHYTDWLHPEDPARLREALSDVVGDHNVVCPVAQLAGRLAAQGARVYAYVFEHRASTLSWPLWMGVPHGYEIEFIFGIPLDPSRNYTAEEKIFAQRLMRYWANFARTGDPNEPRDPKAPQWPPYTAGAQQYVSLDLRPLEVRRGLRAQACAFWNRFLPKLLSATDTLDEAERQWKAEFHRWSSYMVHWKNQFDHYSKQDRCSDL
Procedure: The human neuroblastoma cell line SK-N-SH was purchased from the American Type Culture Collection (Manassas, VA, USA). The SK-N-SH cells were cultured in minimum essential medium from Gibco (California, USA), supplemented with 10% heat inactivated FBS, 2% supplementary amino acid solution, and 1% Glutamax (Gibco, California, USA), 1% penicillin/streptomycin. Incubation was carried out at 37°C in a humidified atmosphere of 5% CO2-95% […] atmosphere. Cells were seeded into 96-well microplates (Nunc, Roskilde, Denmark) at a density of 1 × 10^5 cells/mL (100 μL in each well). Experiments were carried out after 24 h of seeding.
One of the important neuronal properties of SK-N-SH cells is the synthesis of neurotransmitter enzymes. The inhibition activity of samples on this cell line was investigated by the modified Ellman's colorimetric method. The condition was slightly modified to enable the cellular enzyme to work properly. Briefly, 25 μL of sample dissolved in buffer containing 50% methanol, 100 μL of 3 mM DTNB in buffer containing 0.1 M NaCl and 0.02 M MgCl2·2H2O, and 25 μL of 15 mM ATCI in deionized water were added to the well containing 100 μL of the cells. The absorbance at 405 nm was measured by a microplate reader (TECAN M200, Switzerland). All assays were done in triplicate.

[3] = molecular target: T1, AChE (purified enzyme from eel (Electrophorus electricus) type VI-s) (Electrophorus electricus, UniProt O42275); test: biochemical; conditions: mean ± SEM (n = 3); for inhibition at 100 µg/mL: read-out: Anticholinesterase (using purified enzyme from E. electricus) % inhibition (at 100 µg/mL)
T1 construct: a purified enzyme from eel (Electrophorus electricus) type VI-s; purchased Sigma (St. Louis, MO, USA); host or cells: purified from electric eel (natural source)
T1 sequence (O42275 24-633): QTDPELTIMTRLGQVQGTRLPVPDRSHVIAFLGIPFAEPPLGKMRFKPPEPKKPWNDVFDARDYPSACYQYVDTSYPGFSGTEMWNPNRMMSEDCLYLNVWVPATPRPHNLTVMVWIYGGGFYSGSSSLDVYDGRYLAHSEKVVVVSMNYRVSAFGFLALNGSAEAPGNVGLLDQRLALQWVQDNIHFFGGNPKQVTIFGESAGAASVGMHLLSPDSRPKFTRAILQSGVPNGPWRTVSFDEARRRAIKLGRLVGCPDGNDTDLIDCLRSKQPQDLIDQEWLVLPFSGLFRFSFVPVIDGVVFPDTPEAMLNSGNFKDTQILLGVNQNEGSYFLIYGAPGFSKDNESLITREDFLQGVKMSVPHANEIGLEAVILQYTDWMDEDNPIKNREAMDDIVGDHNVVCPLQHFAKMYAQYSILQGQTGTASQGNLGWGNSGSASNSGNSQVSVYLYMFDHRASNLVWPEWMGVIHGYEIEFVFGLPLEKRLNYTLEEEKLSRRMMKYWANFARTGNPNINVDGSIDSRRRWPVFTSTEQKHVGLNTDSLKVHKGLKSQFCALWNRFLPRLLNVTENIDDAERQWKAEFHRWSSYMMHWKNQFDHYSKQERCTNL
Procedure: Ellman's colorimetric method and modified method using 96-well microplates were used. Briefly, […], the product of hydrolysis reaction of ACh by cholinesterase, will react with DTNB to give 2-nitro-5-thiobenzoate (NTB^−), which ionizes to the NTB^2- dianion (in water at pH 8). This NTB^2- ion appears as yellow, which is quantified by measuring the absorbance of visible light at 405 nm. Briefly, tested compound was prepared in buffer a containing 50% MeOH. In a 96-well microtiter plate, 25 μL of tested sample was added to 200 μL reaction medium that consisted of 50 μL of buffer (50 mM TrisHCl pH 8.0) containing 0.1% BSA, 125 μL of 3 mM DTNB in buffer containing 0.1 M NaCl, and 0.02 M MgCl2·2H2O and 25 μL of 15 mM ATCI in deionized water. These contents were mixed and preincubated for 5 min at 37°C. The plate was pre-read at 405 nm using a microplate reader (TECAN M200, Switzerland). Thereafter, the reaction was initiated by the addition of 25 μL of AChE (0.22 U/mL). After 20 min incubation at 37°C, absorbance was measured again within 4–7 min. The reaction control consisted of reaction medium (200 μL), 25 μL of enzyme, and 25 μL of 50% MeOH in buffer. Two blanks were also carried out (with and without sample), and MeOH was used as the solvent control. […] Each assay was done in triplicate.

[4] = system: P19-derived neurons; test: Neuroprotective activity against oxidative stress induced by serum deprivation (XTT); type: cell-based, Murine; conditions: 1 nM, 24 h
Procedure: Murine P19 embryonic carcinoma cells were purchased from American Type Culture Collection (ATCC), USA. P19 cells were cultured as described by Mcburney [24, 25] in a slightly modification [26, 27]. In brief, the undifferentiated P19 cells were cultured as monolayers in α-MEM with 7.5% NCS, 2.5% FBS, and 1% antibiotics-antimycotic solution in a 25-cm^2 tissue culture flask, incubated at 37°C in a humidified atmosphere of 5% CO2. Cells in monolayer cultures were maintained in exponential growth phase by subculturing every 2 days until use.
The blank control was cultured in α-MEM supplemented with 10% FBS and 10 μM Ara-C. The cell survival ability was measured using the XTT method.

[5] = in vitro; type: cell-based; conditions: mouse
Procedure: The exponentially grown cultures indicated the cells density by trypan blue exclusion assay. Then, neuronal differentiation was induced by seeding 2 × 10^6 cells/mL cell in a 100 mm bacteriological grade culture dish containing 10 mL α-MEM supplemented with 5% FBS, 1% antibiotics-antimycotic solution, and 0.5 μM RA. […] After 4 days of RA treatment, aggregates were dissociated with trypsin, washed, resuspended on poly-L-lysine-precoated 96-well plates (plates were previously coated with 50 μg/mL poly-L-lysine dissolved in PBS for overnight and sterilized under UV light for 30 min) at a cell density of 7 × 10^4 cells/mL (150 μL/well) in α-MEM supplemented with 10% FBS and 1% antibiotics-antimycotic solution, and incubated for 24 h. Ara-C (10 μM) was added at day one after plating to inhibit the proliferation of nonneuronal cells. […]
The procedure was carried out on P19-derived neurons cultured in a 96-well plate [29]. […] The data were expressed as the mean ± SEM (n = 3), with the medium as a control representing 100% cell viability.

[6] = system: P19-derived neurons; test: Neuritogenic assay (neurite number and length); type: cell-based, Murine; conditions: 1 nM, 24 h, 30 neurons measured
Procedure: Murine P19 embryonic carcinoma cells were purchased from American Type Culture Collection (ATCC), USA. P19 cells were cultured as described by Mcburney in a slightly modification. In brief, the undifferentiated P19 cells were cultured as monolayers in α-MEM with 7.5% NCS, 2.5% FBS, and 1% antibiotics-antimycotic solution in a 25-cm^2 tissue culture flask, incubated at 37°C in a humidified atmosphere of 5% CO2. Cells in monolayer cultures were maintained in exponential growth phase by subculturing every 2 days until use.
The exponentially grown cultures indicated the cells density by trypan blue exclusion assay. Then, neuronal differentiation was induced by seeding 2 × 10^6 cells/mL cell in a 100 mm bacteriological grade culture dish containing 10 mL α-MEM supplemented with 5% FBS, 1% antibiotics-antimycotic solution, and 0.5 μM RA. […]
The assay was carried out with P19-derived neurons cultured in a poly-L-lysine-precoated 6-well plate. […] Average length and number of neurites of 30 neurons from the assay were measured. […] The data were expressed as the mean ± SEM from three independent experiments.

| Compound | Antioxidant IC50 (radical scavenging activity) [1] [µg/mL] | IC50 [2] [µM] | inhibition at 100 µg/mL [2] [%] | Antioxidant % inhibition (at 100 µg/mL) [1] [%] | inhibition at 100 µg/mL [3] [%] | also measured |
| --- | --- | --- | --- | --- | --- | --- |
| O=C1O[C@H]([C@@H](O)CO)C(O)=C1O [Ascorbic acid, reference compound] | 10.52 ± 0.48 |  |  |  |  |  |
| O=C(O)c1cc(O)c(O)c(O)c1 [Gallic acid] | 4.83 ± 0.02 | 16.4 | 90.7 ± 2.66 | 94.76 ± 0.51 | 73.64 ± 0.06 | IC50 ([3]; read-out: Anticholinesterase (using purified enzyme from E. electricus) IC50 (converted)): 74.8 µM |
| O=c1c(O)c(-c2ccc(O)c(O)c2)oc2cc(O)cc(O)c12 [Quercetin, 3,3′,4′,5,7-pentahydroxyflavone] | 3.18 ± 0.07 | 121 | 82 ± 3.34 | 92.61 ± 0.99 | 80.9 ± 2.52 | Cell survival in serum-supplemented culture ([4]; compared to the control (P19SM)): 128.01%; Cell survival in serum-deprived culture ([4]; serum-free α-MEM, serum deprivation alone 31.16%): 88.29%; IC50 ([1]; converted to molar, read-out: Antioxidant activity IC50 in micromolar range): 9.4 µM; IC50 at 18 h [5]: > 10 µM; viability at 24 h, 0.001 µM ([5]; 1 nM, 24 h treatment, relative to control (100%), read-out: % cell viability of cultured neurons): > 100%; Neurite length [6]: 139.00 ± 108.80 μm |
| Cc1c(C)c2c(c(C)c1O)CCC(C)(C(=O)O)O2 (centres unmarked) [Trolox, reference compound] | 12.54 ± 0.89 |  |  |  |  |  |
| COC1=C2C[C@@H](C)C[C@H](OC)[C@H](O)[C@@H](C)/C=C(\C)[C@H](OC(N)=O)[C@@H](OC)/C=C\C=C(/C)C(=O)NC(=CC1=O)C2=O [geldanamycin, Geldanamycin, reference compound] |  |  |  |  |  | Amount of neurites [6]: 2.03 ± 1.30 |
